*1 amine or outer side, *2 acyl side, *3 side chain or, on linkers, in order; H or OH if unused. Where a SMILES comes first, the peptide text is derived from it. Side-chain parts run from the residue outwards. The star is where a group is joined. C18 diacid = O=C(O)CCCCCCCCCCCCCCCCC(=O)*; γGlu = O=C(O)[C@H](CCC(=O)[*:2])N[*:1]; Isovaleryl = CC(C)CC(=O)*; AEEA = NCCOCCOCC(=O)O
Biological target: T1, Human Neuropeptide Y2 Receptor (Homo sapiens, UniProt P49146)
T1 construct: purchased CHEMICON HTS066M
T1 sequence (P49146 1-381): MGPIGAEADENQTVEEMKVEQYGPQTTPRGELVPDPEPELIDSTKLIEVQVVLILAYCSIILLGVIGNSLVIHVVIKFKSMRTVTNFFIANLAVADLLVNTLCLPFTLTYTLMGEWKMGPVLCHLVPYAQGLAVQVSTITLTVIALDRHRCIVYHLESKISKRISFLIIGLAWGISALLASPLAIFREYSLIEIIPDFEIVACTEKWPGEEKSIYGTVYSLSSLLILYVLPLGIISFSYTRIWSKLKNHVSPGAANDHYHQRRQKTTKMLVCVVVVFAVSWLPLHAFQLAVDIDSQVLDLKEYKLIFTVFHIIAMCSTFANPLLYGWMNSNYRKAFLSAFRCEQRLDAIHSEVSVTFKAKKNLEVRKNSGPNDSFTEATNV
Assay: Radioligand binding competition assay (RLB)
Settings: Table 3; human 125I-PYY (1-36) 0.02 nM, Y2 receptor membranes; read-out: Ki
Description: The filtration RLB assay was carried out in 96-well plates in a final volume of 100 μl per well. Freeze-dried test peptides were dissolved in 100% dimethyl sulfoxide (DMSO) to stock solutions of 1 mM and serial dilutions were performed in assay buffer (50 mM HEPES, 5 mM MgCl2, 1 mM CaCl2), pH 7.4) containing 0.2% ovalbumin. […] Next, 80 μL membranes (HTS066M, ChemiSCREEN™ Human Neuropeptide Y2 Receptor Membrane Preparation, CHEMICON) were added to each well to give a final protein concentration of 0.5 μg/well. The plates were sealed and incubated at room temperature for 2 hours in a plate shaker set at 400 rpm. The incubation was stopped by vacuum filtration onto 0.5% poly-ethylene amine (PEI) presoaked GF/C filters using a 96-well FilterMate™ harvester (Perkin Elmer) followed by four washes with 300 μl/well ice-cold wash buffer (50 mM HEPES, 500 mM NaCl, pH7.4). Filter plates were then dried for 60 min at room temperature and the bottom of the plates was sealed with backing tape UniFilter-96. Finally, 50 μl/well scintillation counter cocktail (Microscint20, Packard) was added and the radioactivity was counted in the Packard TopCount NXT scintillation counter. IC50 values (the half maximal inhibitory concentration of the agonist) were calculated by nonlinear regression analysis of sigmoidal dose-response curves.

Q: `CC(C)CC(=O)N[C@@H](C)C(=O)N1CCC[C@H]1C(=O)N[C@@H](CCC(=O)O)C(=O)N[C@@H](CCCCNC(=O)COCCOCCNC(=O)COCCOCCNC(=O)CC[C@H](NC(=O)CCCCCCCCCCCCCCCCC(=O)O)C(=O)O)C(=O)N1CCC[C@H]1C(=O)N[C@@H](CCC(=O)O)C(=O)N[C@@H](CCC(=O)O)C(=O)N[C@@H](CC(=O)O)C(=O)N[C@@H](C)C(=O)N[C@@H](CCC(N)=O)C(=O)N1CCC[C@H]1C(=O)N[C@@H](CCC(=O)O)C(=O)N[C@@H](CCC(=O)O)C(=O)N[C@@H](CC(C)C)C(=O)N[C@@H](CCC(N)=O)C(=O)N[C@@H](CCC(=O)O)C(=O)N[C@@H](Cc1ccc(O)cc1)C(=O)N[C@@H](Cc1ccc(O)cc1)C(=O)N[C@H](C(=O)N[C@@H](CO)C(=O)N[C@@H](CC(C)C)C(=O)N[C@@H](CCCNC(=N)N)C(=O)N[C@@H](Cc1c[nH]cn1)C(=O)N[C@@H](Cc1ccc(O)cc1)C(=O)N[C@@H](Cc1ccc(O)cc1)C(=O)N[C@@H](CC(N)=O)C(=O)N[C@@H](Cc1c[nH]c2ccccc12)C(=O)N[C@@H](CC(C)C)C(=O)N[C@H](C(=O)N[C@@H](CCCNC(=N)N)C(=O)N[C@@H](CCC(N)=O)C(=O)N[C@@H](CCCNC(=N)N)C(=O)N[C@@H](Cc1ccc(O)cc1)C(N)=O)[C@@H](C)O)C(C)C` [Compound 1, N{alpha-4}-(3-methylbutanoyl)-N{epsilon-7}-[2-(2-{2-[2-(2-{2-[(4S)-4-carboxy-4-(17-carboxyheptadecanamido)butanamido]ethoxy}ethoxy)acetamido]ethoxy}ethoxy)acetamido]-[4A,7K,9E,13Q,18Q,19E,22V,28Y,30W,31L]hPYY (4-36)] (Isovaleryl-APEK([AEEA-AEEA-γGlu-C18 diacid])PEEDAQPEELQEYYVSLRHYYNWLTRQRY-NH2) was tested. Which Ki did it give?
A: Its Ki is 2.5 nM.

Q: With `CC(C)CC(=O)N[C@@H](C)C(=O)N1CCC[C@H]1C(=O)N[C@@H](CCC(=O)O)C(=O)N[C@@H](CCCCNC(=O)COCCOCCNC(=O)COCCOCCNC(=O)CC[C@H](NC(=O)CCCCCCCCCCCCCCCCC(=O)O)C(=O)O)C(=O)N1CCC[C@H]1C(=O)N[C@@H](CCC(=O)O)C(=O)N[C@@H](CCC(=O)O)C(=O)N[C@@H](CC(=O)O)C(=O)N[C@@H](C)C(=O)N[C@@H](CO)C(=O)N1CCC[C@H]1C(=O)N[C@@H](CCC(=O)O)C(=O)N[C@@H](CCC(=O)O)C(=O)N[C@@H](CC(C)C)C(=O)N[C@@H](CCC(N)=O)C(=O)N[C@@H](CCCNC(=N)N)C(=O)N[C@@H](Cc1ccc(O)cc1)C(=O)N[C@@H](Cc1ccc(O)cc1)C(=O)N[C@H](C(=O)N[C@@H](CO)C(=O)N[C@@H](CC(C)C)C(=O)N[C@@H](CCCNC(=N)N)C(=O)N[C@@H](Cc1c[nH]cn1)C(=O)N[C@@H](Cc1ccc(O)cc1)C(=O)N[C@@H](Cc1ccc(O)cc1)C(=O)N[C@@H](CC(N)=O)C(=O)N[C@@H](Cc1c[nH]c2ccccc12)C(=O)N[C@@H](CC(C)C)C(=O)N[C@@H](CCC(N)=O)C(=O)N[C@@H](CCCNC(=N)N)C(=O)N[C@@H](CCC(N)=O)C(=O)N[C@@H](CCCNC(=N)N)C(=O)N[C@@H](Cc1ccc(O)cc1)C(N)=O)C(C)C` [Compound 4, N{alpha-4}-(3-methylbutanoyl)-N{epsilon-7}-[2-(2-{2-[2-(2-{2-[(4S)-4-carboxy-4-(17-carboxyheptadecanamido)butanamido]ethoxy}ethoxy)acetamido]ethoxy}ethoxy)acetamido]-[4A,7K,9E,18Q,22V,28Y,30W,31L,32Q]hPYY (4-36)] as the compound, how does the Ki read?
A: The Ki was 1.43 nM.

Q: With `CC(C)CC(=O)N[C@@H](C)C(=O)N1CCC[C@H]1C(=O)N[C@@H](CCC(=O)O)C(=O)N[C@@H](CCCCNC(=O)COCCOCCNC(=O)COCCOCCNC(=O)CC[C@H](NC(=O)CCCCCCCCCCCCCCCCC(=O)O)C(=O)O)C(=O)N1CCC[C@H]1C(=O)N[C@@H](CCC(=O)O)C(=O)N[C@@H](CCC(=O)O)C(=O)N[C@@H](CCC(=O)O)C(=O)N[C@H](C(=O)N[C@@H](CO)C(=O)N1CCC[C@H]1C(=O)N[C@@H](CCC(=O)O)C(=O)N[C@@H](CCC(=O)O)C(=O)N[C@@H](CC(C)C)C(=O)N[C@@H](CCC(N)=O)C(=O)N[C@@H](CCCNC(=N)N)C(=O)N[C@@H](Cc1ccc(O)cc1)C(=O)N[C@@H](Cc1ccc(O)cc1)C(=O)N[C@H](C(=O)N[C@@H](CO)C(=O)N[C@@H](CC(C)C)C(=O)N[C@@H](CCCNC(=N)N)C(=O)N[C@@H](Cc1c[nH]cn1)C(=O)N[C@@H](Cc1ccc(O)cc1)C(=O)N[C@@H](Cc1ccc(O)cc1)C(=O)N[C@@H](CC(N)=O)C(=O)N[C@@H](Cc1c[nH]c2ccccc12)C(=O)N[C@@H](CC(C)C)C(=O)N[C@H](C(=O)N[C@@H](CCCNC(=N)N)C(=O)N[C@@H](CCC(N)=O)C(=O)N[C@@H](CCCNC(=N)N)C(=O)N[C@@H](Cc1ccc(O)cc1)C(N)=O)[C@@H](C)O)C(C)C)C(C)C` [Compound 5, N{alpha-4}-(3-methylbutanoyl)-N{epsilon-7}-[2-(2-{2-[2-(2-{2-[(4S)-4-carboxy-4-(17-carboxyheptadecanamido)butanamido]ethoxy}ethoxy)acetamido]ethoxy}ethoxy)acetamido]-[4A,7K,9E,11E,12V,18Q,22V,28Y,30W,31L]hPYY (4-36)] (Isovaleryl-APEK([AEEA-AEEA-γGlu-C18 diacid])PEEEVSPEELQRYYVSLRHYYNWLTRQRY-NH2) as the compound, how does the Ki read?
A: Its Ki is 14.8 nM.

Q: How did the Ki turn out when `CC(C)CC(=O)N[C@@H](C)C(=O)N1CCC[C@H]1C(=O)N[C@@H](CCC(=O)O)C(=O)N[C@@H](CCCCNC(=O)COCCOCCNC(=O)COCCOCCNC(=O)CC[C@H](NC(=O)CCCCCCCCCCCCCCCCC(=O)O)C(=O)O)C(=O)N1CCC[C@H]1C(=O)N[C@@H](CCC(=O)O)C(=O)N[C@@H](CCC(=O)O)C(=O)N[C@@H](CCC(=O)O)C(=O)N[C@@H](C)C(=O)N[C@@H](CO)C(=O)N1CCC[C@H]1C(=O)N[C@@H](CCC(=O)O)C(=O)N[C@@H](CCC(=O)O)C(=O)N[C@@H](CC(C)C)C(=O)N[C@@H](CCC(N)=O)C(=O)N[C@@H](CCCNC(=N)N)C(=O)N[C@@H](Cc1ccc(O)cc1)C(=O)N[C@@H](Cc1ccc(O)cc1)C(=O)N[C@H](C(=O)N[C@@H](CO)C(=O)N[C@@H](C)C(=O)N[C@@H](CCCNC(=N)N)C(=O)N[C@@H](Cc1c[nH]cn1)C(=O)N[C@@H](Cc1ccc(O)cc1)C(=O)N[C@@H](Cc1ccc(O)cc1)C(=O)N[C@@H](CC(N)=O)C(=O)N[C@@H](Cc1c[nH]c2ccccc12)C(=O)N[C@@H](CC(C)C)C(=O)N[C@H](C(=O)N[C@@H](CCCNC(=N)N)C(=O)N[C@@H](CCC(N)=O)C(=O)N[C@@H](CCCNC(=N)N)C(=O)N[C@@H](Cc1ccc(O)cc1)C(N)=O)[C@@H](C)O)C(C)C` [Compound 6, N{alpha-4}-(3-methylbutanoyl)-N{epsilon-7}-[2-(2-{2-[2-(2-{2-[(4S)-4-carboxy-4-(17-carboxyheptadecanamido)butanamido]ethoxy}ethoxy)acetamido]ethoxy}ethoxy)acetamido]-[4A,7K,9E,11E,18Q,22V,24A,28Y,30W,31L]hPYY (4-36)] (Isovaleryl-APEK([AEEA-AEEA-γGlu-C18 diacid])PEEEASPEELQRYYVSARHYYNWLTRQRY-NH2) was run?
A: The Ki was 6.52 nM.

Q: How did the Ki turn out when `CC(C)CC(=O)N[C@@H](C)C(=O)N1CCC[C@H]1C(=O)N[C@@H](CCC(=O)O)C(=O)N[C@@H](CCCCNC(=O)COCCOCCNC(=O)COCCOCCNC(=O)CC[C@H](NC(=O)CCCCCCCCCCCCCCCCC(=O)O)C(=O)O)C(=O)N1CCC[C@H]1C(=O)N[C@@H](CCC(=O)O)C(=O)N[C@@H](C)C(=O)N[C@@H](CC(=O)O)C(=O)N[C@@H](C)C(=O)N[C@@H](CO)C(=O)N1CCC[C@H]1C(=O)N[C@@H](CCC(=O)O)C(=O)N[C@@H](CCC(=O)O)C(=O)N[C@H](C(=O)N[C@@H](CCC(N)=O)C(=O)N[C@@H](CCCNC(=N)N)C(=O)N[C@@H](Cc1ccc(O)cc1)C(=O)N[C@@H](Cc1ccc(O)cc1)C(=O)N[C@H](C(=O)N[C@@H](CO)C(=O)N[C@@H](CC(C)C)C(=O)N[C@@H](CCCNC(=N)N)C(=O)N[C@@H](Cc1c[nH]cn1)C(=O)N[C@@H](Cc1ccc(O)cc1)C(=O)N[C@@H](Cc1ccc(O)cc1)C(=O)N[C@@H](CC(N)=O)C(=O)N[C@@H](Cc1c[nH]c2ccccc12)C(=O)N[C@@H](CC(C)C)C(=O)N[C@H](C(=O)N[C@@H](CCCNC(=N)N)C(=O)N[C@@H](CCC(N)=O)C(=O)N[C@@H](CCCNC(=N)N)C(=O)N[C@@H](Cc1ccc(O)cc1)C(N)=O)[C@@H](C)O)C(C)C)[C@@H](C)O` [Compound 10, N{alpha-4}-(3-methylbutanoyl)-N{epsilon-7}-[2-(2-{2-[2-(2-{2-[(4S)-4-carboxy-4-(17-carboxyheptadecanamido)butanamido]ethoxy}ethoxy)acetamido]ethoxy}ethoxy)acetamido]-[4A,7K,9E,10A,17T,18Q,22V,28Y,30W,31L]hPYY (4-36)] was run?
A: The Ki was 1.28 nM.

Source: patent US12559529B2, “NPY2 receptor agonists” (Boehringer Ingelheim International GmbH, priority 2019, dated 2026)
